# Tests used:
# Assay type in all cases: cell-based
# [1] = system: human dermal fibroblasts from Huntington's patients; assay: Rescue of BSO-stressed fibroblasts from Huntington's patients; details: Fibroblast, Huntington's fibroblasts GM 04281, BSO stress, read-out: protection against Huntington's, EC50
# Method: (§1) An initial screen was performed to identify compounds effective for the amelioration of redox disorders. Test samples, 4 reference compounds (Idebenone, decylubiquinone, Trolox and α-tocopherol acetate), and solvent controls were tested for their ability to rescue FRDA fibroblasts stressed by addition of L-buthionine-(S,R)-sulfoximine (BSO), as described in Jauslin et al., Hum. Mol. Genet. 11(24):3055 (2002), Jauslin et al., FASEB J. 17:1972-4 (2003), and International Patent Application WO 2004/003565. […] This specific BSO-mediated cell death can be prevented by administration of antioxidants or molecules involved in the antioxidant pathway, such as α-tocopherol, selenium, or small molecule glutathione peroxidase mimetics. However, antioxidants differ in their potency, i.e. the concentration at which they are able to rescue BSO-stressed FRDA fibroblasts.
# (§2) Test samples were screened according to the following protocol: A culture with FRDA fibroblasts was started from a 1 ml vial with approximately 500,000 cells stored in liquid nitrogen. Cells were propagated in 10 cm cell culture dishes by splitting every third day in a ratio of 1:3 until nine plates were available. Once confluent, fibroblasts were harvested. For 54 micro titer plates (96 well-MTP) a total of 14.3 million cells (passage eight) were re-suspended in 480 ml medium, corresponding to 100 μl medium with 3,000 cells/well. The remaining cells were distributed in 10 cm cell culture plates (500,000 cells/plate) for propagation. The plates were incubated overnight at 37° C. in a atmosphere with 95% humidity and 5% CO2 to allow attachment of the cells to the culture plate.
# (§3) MTP medium (243 μl) was added to a well of the microtiter plate. The test compounds were unfrozen, and 7.5 μl of a 5 mM stock solution was dissolved in the well containing 243 μl medium, resulting in a 150 μM master solution. Serial dilutions from the master solution were made. The period between the single dilution steps was kept as short as possible (generally less than 1 second).
# (§4) Plates were kept overnight in the cell culture incubator. The next day, 10 μl of a 10 mM BSO solution were added to the wells, resulting in a 1 mM final BSO concentration. Forty-eight hours later, three plates were examined under a phase-contrast microscope to verify that the cells in the 0% control (wells E1-H1) were clearly dead. The medium from all plates was discarded, and the remaining liquid was removed by gently tapping the plate inversed onto a paper towel.
# (§5) 100 μl of PBS containing 1.2 μM Calcein AM were then added to each well. The plates were incubated for 50-70 minutes at room temperature. After that time the PBS was discarded, the plate gently tapped on a paper towel and fluorescence (excitation/emission wavelengths of 485 nm and 525 nm, respectively) was read on a Gemini fluorescence reader. Data was imported into Microsoft Excel (EXCEL is a registered trademark of Microsoft Corporation for a spreadsheet program) and used to calculate the EC50 concentration for each compound.
# Compounds of the invention were tested using the screen as described in Example A, but substituting FRDA cells with Huntington's cells obtained from the Coriell Cell Repositories (Camden, N.J.; repository number GM 04281). The compounds were tested for their ability to rescue human dermal fibroblasts from Huntington's patients from oxidative stress.
# [2] = system: Human dermal fibroblasts from Friedreich's Ataxia patients; assay: Rescue of BSO-stressed FRDA fibroblasts (Calcein AM viability); details: FRDA fibroblasts GM04078, BSO stress, read-out: protection against FRDA, EC50
# Method: as §1
# MEM (a medium enriched in amino acids and vitamins, catalog no. 1-31F24-I) and Medium 199 (M199, catalog no. 1-21F22-I) with Earle's Balanced Salts, without phenol red, were purchased from Bioconcept. Fetal Calf Serum was obtained from PAA Laboratories. Basic fibroblast growth factor and epidermal growth factor were purchased from PeproTech. Penicillin-streptomycin-glutamine mix, L-buthionine (S,R)-sulfoximine, (+)-α-tocopherol acetate, decylubiquinone, and insulin from bovine pancreas were purchased from Sigma. Trolox (6-hydroxy-2,5,7,8-tetramethylchromane-2-carboxylic acid) was obtained from Fluka. Idebenone was obtained from Chemo Iberica. Calcein AM was purchased from Molecular Probes. Cell culture medium was made by combining 125 ml M 199 EBS, 50 ml Fetal Calf Serum, 100 U/ml penicillin, 100 μg/ml streptomycin, 2 mM glutamine, 10 μg/ml insulin, 10 ng/ml EGF, and 10 ng/ml bFGF; MEM EBS was added to make the volume up to 500 ml. A 10 mM BSO solution was prepared by dissolving 444 mg BSO in 200 ml of medium with subsequent filter-sterilization. During the course of the experiments, this solution was stored at +4° C. The cells were obtained from the Coriell Cell Repositories (Camden, N.J.; repository number GM04078) and grown in 10 cm tissue culture plates. Every third day, they were split at a 1:3 ratio.
# The test samples were supplied in 1.5 ml glass vials. The compounds were diluted with DMSO, ethanol or PBS to result in a 5 mM stock solution. Once dissolved, they were stored at −20° C. Reference antioxidants (Idebenone, decylubiquinone, α-tocopherol acetate and trolox) were dissolved in DMSO.
# as §2, §3
# as §4, with “The medium from all plates was discarded, and the remaining liquid was removed by gently tapping the plate inversed onto a paper towel.” left out
# [3] = system: human dermal fibroblasts from LHON patients; assay: Rescue of BSO-stressed fibroblasts from LHON patients; details: Fibroblast, LHON fibroblasts GM03858, BSO stress, read-out: protection against LHON, EC50
# Method: as §1, §2, §3, §4, §5
# Compounds of the invention were screened as described in Example A, but substituting FRDA cells with Leber's Hereditary Optic Neuropathy (LHON) cells obtained from the Coriell Cell Repositories (Camden, N.J.; repository number GM03858). The compounds were tested for their ability to rescue human dermal fibroblasts from LHON patients from oxidative stress.
# [4] = system: human dermal fibroblasts from Parkinson's disease patients; assay: Rescue of BSO-stressed fibroblasts from Parkinson's disease patients; details: Fibroblast, PD fibroblasts AG20439, BSO stress, read-out: protection against PD, EC50
# Method: as §1, §2, §3, §4, §5
# Compounds of the invention were screened as described in Example A, but substituting FRDA cells with Parkinson's Disease (PD) cells obtained from the Coriell Cell Repositories (Camden, N.J.; repository number AG20439). The compounds were tested for their ability to rescue human dermal fibroblasts from Parkinson's disease patients from oxidative stress.
SMILES,EC50 [1],EC50 [2],EC50 [3],EC50 [4]
"COc1cccc(C2=C(CCC(C)(C)O)C(=O)C(C)=C(C)C2=O)c1 [2-(3-hydroxy-3-methylbutyl)-3-(3-methoxyphenyl)-5,6-dimethyl-cyclohexa-2,5-diene-1,4-dione]",< 200 nM,,,
"COc1cc(F)ccc1C1=C(CCC(C)(C)O)C(=O)C(C)=C(C)C1=O [2-(4-fluoro-2-methoxyphenyl)-3-(3-hydroxy-3-methylbutyl)-5,6-dimethylcyclohexa-2,5-diene-1,4-dione]",< 200 nM,,,
"CC1=C(C)C(=O)C(c2ccc3c(c2)OCO3)=C(CCC(C)(C)O)C1=O [2-(benzo[d][1,3]dioxol-5-yl)-3-(3-hydroxy-3-methylbutyl)-5,6-dimethylcyclohexa-2,5-diene-1,4-dione]",< 200 nM,,,
"CC1=C(C)C(=O)C(c2ccc(C#N)cc2)=C(CCC(C)(C)O)C1=O [4-(2-(3-hydroxy-3-methylbutyl)-4,5-dimethyl-3,6-dioxocyclohexa-1,4-dienyl)benzonitrile]",< 200 nM,,,
"CC1=C(CCC(C)(C)O)C(=O)C(c2ccc(C(F)(F)F)cc2)=C(C)C1=O [Example 1, 2-(3-Hydroxy-3-methylbutyl)-3,5-dimethyl-6-(4-(trifluoromethyl)phenyl)cyclohexa-2,5-diene-1,4-dione]",< 200 nM,< 200 nM,< 200 nM,< 200 nM
"CC1=C(CCC(C)(C)O)C(=O)C(c2ccc(C#N)cc2)=C(C)C1=O [Example 3, 4-(5-(3-Hydroxy-3-methylbutyl)-2,4-dimethyl-3,6-dioxocyclohexa-1,4-dienyl)benzonitrile]",,< 200 nM,< 200 nM,< 200 nM
"CC1=C(C)C(=O)C(c2ccc(F)cc2)=C(CCC(C)(C)O)C1=O [Example 9, 2-(4-Fluorophenyl)-3-(3-hydroxy-3-methylbutyl)-5,6-dimethylcyclohexa-2,5-diene-1,4-dione]",< 200 nM,< 200 nM,< 200 nM,
"CC1=C(C)C(=O)C(c2ccccc2)=C(CCC(C)(C)O)C1=O [Example 10, 2-(3-Hydroxy-3-methylbutyl)-5,6-dimethyl-3-phenylcyclohexa-2,5-diene-1,4-dione]",,,,< 200 nM
"COc1ccc(C2=C(CCC(C)(C)O)C(=O)C(C)=C(C)C2=O)cc1 [Example 12, 2-(3-Hydroxy-3-methylbutyl)-3-(4-methoxyphenyl)-5,6-dimethylcyclohexa-2,5-diene-1,4-dione]",< 200 nM,,< 200 nM,
"CC1=C(C)C(=O)C(c2cc3ccccc3o2)=C(CCC(C)(C)O)C1=O [Example 14, 2-(Benzofuran-2-yl)-3-(3-hydroxy-3-methylbutyl)-5,6-dimethylcyclohexa-2,5-diene-1,4-dione]",,,< 200 nM,< 200 nM
"CC1=C(C)C(=O)C(c2ccc(F)c(F)c2)=C(CCC(C)(C)O)C1=O [Example 21, 2-(3,4-Difluorophenyl)-3-(3-hydroxy-3-methylbutyl)-5,6-dimethylcyclohexa-2,5-diene-1,4-dione]",< 200 nM,< 200 nM,< 200 nM,
"CC1=C(C)C(=O)C(c2ccccc2F)=C(CCC(C)(C)O)C1=O [Example 22, 2-(2-Fluorophenyl)-3-(3-hydroxy-3-methylbutyl)-5,6-dimethylcyclohexa-2,5-diene-1,4-dione]",< 200 nM,,,
"CC1=C(C)C(=O)C(Cc2ccccc2)=C(CCC(C)(C)O)C1=O [Example 23, 2-Benzyl-3-(3-hydroxy-3-methylbutyl)-5,6-dimethylcyclohexa-2,5-diene-1,4-dione]",< 200 nM,< 200 nM,< 200 nM,
"CC1=C(C)C(=O)C(CCC(C)(C)O)=C(CCc2ccccc2)C1=O [Example 25, 2-(3-Hydroxy-3-methylbutyl)-5,6-dimethyl-3-phenethylcyclohexa-2,5-diene-1,4-dione]",< 200 nM,,< 200 nM,< 200 nM
"CC1=C(C)C(=O)C(C(O)Cc2ccccc2)=C(CCC(C)(C)O)C1=O (centres unmarked) [Example 26, 2-(1-Hydroxy-2-phenylethyl)-3-(3-hydroxy-3-methylbutyl)-5,6-dimethylcyclohexa-2,5-diene-1,4-dione]",< 200 nM,< 200 nM,,< 200 nM
